From patent publication US20250066389A1, “HETEROCYCLIC AMIDES AND METHODS OF USING THE SAME” (Rgenta Therapeutics, Inc., priority 2021, published 2025)
Counter-ions that a name gives are not always drawn.

What follows are molecules tested on PMS1 (assay: Mini-Gene Reporter Assay—PMS1 (firefly luciferase mini-gene reporter transiently transfected into HEK293 cells)). Details: Homo sapiens; at 5 uM; mini-gene firefly luciferase reporter in HEK293 cells; read-out: PMS1 % Effect at 5 uM.
Assay type: cell-based
From the text: Example 76. Mini-Gene Reporter Assay—PMS1
Mini-gene reporter constructs for each target site can be constructed by first PCR amplifying the region-of-interest including the sequence of the alternatively skipped, sequences of the immediate upstream and downstream introns, and sequences of the immediate upstream and downstream exons. Then the 3′ end of the amplified sequence can be ligated to a firefly luciferase reporter gene and cloned into the pcDNA3.1 vector backbone. The final reporter construct can be transiently transfected into HEK293 cells using Lipofectamine 3000 transfection reagents. Compounds that can induce the inclusion of the skipped exon in the reporter construct would increase the reporter firefly luciferase activity.
Test compounds may be diluted in duplicates and dispensed into an assay plate. Transient mini-gene reporter cell line stock is resuspended and dispensed into the assay plate. Assay plates are then centrifuged and incubated. A luciferase reagent (e.g. ONE-Glo firefly luciferase reagent from Promega®) may be added to the assay plate and the luminescence (RLU) signals recorded. EC50 values may be determined by curve fitting in Levenberg-Marquardt algorithm.
In Table D below, A indicates a IC50 (μM)<1 μM, B indicates a IC50 (μM) 1 μM to <10 μM, and C indicates a IC50 (μM) 10 μM to <50 μM. In Table D below, A indicates a >75% Effect at 5 μM μM. B indicates a 50 to <75% Effect at 5 μM μM, and C indicates a <50% Effect at 5 μM.
For COc1cc2nc(C)cn2cc1C(=O)Nc1ccc(N2CCC3NCCCC3C2)cc1F (stereo not shown) [Compound 131, N-(2-fluoro-4-(octahydro-1,6-naphthyridin-6(2H)-yl)phenyl)-7-methoxy-2-methylimidazo[1,2-a]pyridine-6-carboxamide], the activation at 5 µM was 50 to 75%. COc1cc2nc(C)cn2cc1C(=O)Nc1ccc(N2CC(CO)C3(CNC3)C2)cc1F (stereo not shown) [Compound 134, N-(2-fluoro-4-(8-(hydroxymethyl)-2,6-diazaspiro[3.4]octan-6-yl)phenyl)-7-methoxy-2-methylimidazo[1,2-a]pyridine-6-carboxamide] was tested, and the activation at 5 µM was < 50%. For COc1cc2nc(C)cn2cc1C(=O)Nc1ccc(N2CCC3(CCNC3)CC2)cc1F [Compound 135, N-(2-fluoro-4-(2,8-diazaspiro[4.5]decan-8-yl)phenyl)-7-methoxy-2-methylimidazo[1,2-a]pyridine-6-carboxamide], the activation at 5 µM was < 50%. In the case of COc1cc2nc(C)cn2cc1C(=O)Nc1ccc(N2CCC(NCC3CC3)CC2)cc1F [Compound 136, N-(4-(4-((cyclopropylmethyl)amino)piperidin-1-yl)-2-fluorophenyl)-7-methoxy-2-methylimidazo[1,2-a]pyridine-6-carboxamide], the activation at 5 µM is reported as 50 to 75%. In the case of COCCNC1CCN(c2ccc(NC(=O)c3cn4cc(C)nc4cc3OC)c(F)c2)CC1 [Compound 137, N-(2-fluoro-4-(4-((2-methoxyethyl)amino)piperidin-1-yl)phenyl)-7-methoxy-2-methylimidazo[1,2-a]pyridine-6-carboxamide], the activation at 5 µM is reported as 50 to 75%. In the case of COc1cc2nc(C)cn2cc1C(=O)Nc1ccc(N2CC3CCCC(C2)NC3)cc1F (stereo not shown) [Compound 138, N-(4-(3,9-diazabicyclo[3.3.2]decan-3-yl)-2-fluorophenyl)-7-methoxy-2-methylimidazo[1,2-a]pyridine-6-carboxamide], the activation at 5 µM is reported as > 75%. For COc1cc2nc(C)cn2cc1C(=O)Nc1ccc(N2CCNCC3(CC3)C2)cc1F [Compound 139, N-(2-fluoro-4-(5,8-diazaspiro[2.6]nonan-5-yl)phenyl)-7-methoxy-2-methylimidazo[1,2-a]pyridine-6-carboxamide], the activation at 5 µM was > 75%. With COc1cc2nc(C)cn2cc1C(=O)Nc1ccc(N2C3CCCC2CNC3)cc1F [Compound 140, N-(4-(3,9-diazabicyclo[3.3.1]nonan-9-yl)-2-fluorophenyl)-7-methoxy-2-methylimidazo[1,2-a]pyridine-6-carboxamide] the activation at 5 µM was > 75%. In the case of COc1cc2nc(C)cn2cc1C(=O)Nc1ccc(N2CCCNC(CO)C2)cc1F (stereo not shown) [Compound 141, N-(2-fluoro-4-(3-(hydroxymethyl)-1,4-diazepan-1-yl)phenyl)-7-methoxy-2-methylimidazo[1,2-a]pyridine-6-carboxamide], the activation at 5 µM is reported as 50 to 75%. For COc1cc2nc(C)cn2cc1C(=O)Nc1ccc(N2CCN[C@@H](C(C)C)C2)cc1F [Compound 142, (S)-N-(2-fluoro-4-(3-isopropylpiperazin-1-yl)phenyl)-7-methoxy-2-methylimidazo[1,2-a]pyridine-6-carboxamide], the activation at 5 µM was > 75%. With COc1cc2nc(C)cn2cc1C(=O)Nc1ccc(N2CCC3(CCN3)CC2)cc1F [Compound 143, N-(2-fluoro-4-(1,7-diazaspiro[3.5]nonan-7-yl)phenyl)-7-methoxy-2-methylimidazo[1,2-a]pyridine-6-carboxamide] the activation at 5 µM was > 75%. COCC1CNCCN1c1ccc(NC(=O)c2cn3cc(C)nc3cc2OC)c(F)c1 (stereo not shown) [Compound 144, N-(2-fluoro-4-(2-(methoxymethyl)piperazin-1-yl)phenyl)-7-methoxy-2-methylimidazo[1,2-a]pyridine-6-carboxamide] was tested, and the activation at 5 µM was 50 to 75%. COc1cc2nc(C)cn2cc1C(=O)Nc1ccc(N2CCC3(CCNC3)C2)cc1F (stereo not shown) [Compound 145, N-(2-fluoro-4-(2,7-diazaspiro[4.4]nonan-2-yl)phenyl)-7-methoxy-2-methylimidazo[1,2-a]pyridine-6-carboxamide] was tested, and the activation at 5 µM was < 50%. For COc1cc2nc(C)cn2cc1C(=O)Nc1ccc(N2CCC3(CCCN3)C2)cc1F (stereo not shown) [Compound 146, N-(2-fluoro-4-(1,7-diazaspiro[4.4]nonan-7-yl)phenyl)-7-methoxy-2-methylimidazo[1,2-a]pyridine-6-carboxamide], the activation at 5 µM was < 50%. COc1cc2nc(C)cn2cc1C(=O)Nc1ccc(N2C3CCNCC2CC3)cc1F (stereo not shown) [Compound 148, N-(4-(3,9-diazabicyclo[4.2.1]nonan-9-yl)-2-fluorophenyl)-7-methoxy-2-methylimidazo[1,2-a]pyridine-6-carboxamide] was tested, and the activation at 5 µM was < 50%. CCNC1CCN(c2ccc(NC(=O)c3cn4cc(C)nc4cc3OC)c(F)c2)CC1 [Compound 149, N-(4-(4-(ethylamino)piperidin-1-yl)-2-fluorophenyl)-7-methoxy-2-methylimidazo[1,2-a]pyridine-6-carboxamide] was tested, and the activation at 5 µM was > 75%. In the case of COc1cc2nc(C)cn2cc1C(=O)Nc1ccc(N2CCC3(CC2)CNC3)cc1F [Compound 150, N-(2-fluoro-4-(2,7-diazaspiro[3.5]nonan-7-yl)phenyl)-7-methoxy-2-methylimidazo[1,2-a]pyridine-6-carboxamide], the activation at 5 µM is reported as < 50%. CCNC1CCCN(c2ccc(NC(=O)c3cn4cc(C)nc4cc3OC)c(F)c2)C1 (stereo not shown) [Compound 151, N-(4-(3-(ethylamino)piperidin-1-yl)-2-fluorophenyl)-7-methoxy-2-methylimidazo[1,2-a]pyridine-6-carboxamide] was tested, and the activation at 5 µM was < 50%. In the case of COc1cc2nc(C)cn2cc1C(=O)Nc1ccc(N2CCC3(CNC3)C2)cc1F [Compound 152, N-(2-fluoro-4-(2,6-diazaspiro[3.4]octan-6-yl)phenyl)-7-methoxy-2-methylimidazo[1,2-a]pyridine-6-carboxamide], the activation at 5 µM is reported as < 50%. With COc1cc2nc(C)cn2cc1C(=O)Nc1ccc(N2CCNCC(O)C2)cc1F (stereo not shown) [Compound 153, N-(2-fluoro-4-(6-hydroxy-1,4-diazepan-1-yl)phenyl)-7-methoxy-2-methylimidazo[1,2-a]pyridine-6-carboxamide] the activation at 5 µM was < 50%. COc1cc2nc(C)cn2cc1C(=O)Nc1ccc(N2CCNC(CF)C2)cc1F (stereo not shown) [Compound 159, N-(2-fluoro-4-(3-(fluoromethyl)piperazin-1-yl)phenyl)-7-methoxy-2-methylimidazo[1,2-a]pyridine-6-carboxamide] gave an activation at 5 µM of 50 to 75%.

Same assay, conditions: Homo sapiens; mini-gene firefly luciferase reporter in HEK293 cells
With Cc1cn2cc(C(=O)Nc3ccc(N4CCNCC4)cn3)c(OC(C)C)cc2n1 [Compound 129, 7-isopropoxy-2-methyl-N-(5-(piperazin-1-yl)pyridin-2-yl)imidazo[1,2-a]pyridine-6-carboxamide hydrochloride] the IC50 was 1 to 10 µM. For CCOc1cc2nc(C)cn2cc1C(=O)Nc1ccc(N2CCNCC2)cn1 [Compound 130, 7-ethoxy-2-methyl-N-(5-(piperazin-1-yl)pyridin-2-yl) imidazo[1,2-a]pyridine-6-carboxamide hydrochloride], the IC50 was < 1 µM. With COc1cc2nc(C)cn2cc1C(=O)Nc1ccc(N2CCC3(CCCN3)CC2)cc1F [Compound 132, N-(2-fluoro-4-(1,8-diazaspiro[4.5]decan-8-yl)phenyl)-7-methoxy-2-methylimidazo[1,2-a]pyridine-6-carboxamide] the IC50 was < 1 µM. In the case of COc1cc2nc(C)cn2cc1C(=O)Nc1ccc(N2CCC3(CC2)COCCN3)cc1F [Compound 133, N-(2-fluoro-4-(4-oxa-1,9-diazaspiro[5.5]undecan-9-yl)phenyl)-7-methoxy-2-methylimidazo[1,2-a]pyridine-6-carboxamide], the IC50 is reported as < 1 µM. In the case of COc1cc2nc(C)cn2cc1C(=O)Nc1ccc(N2CC3CCCC(C2)N3)cc1F [Compound 147, N-(4-(3,9-diazabicyclo[3.3.1]nonan-3-yl)-2-fluorophenyl)-7-methoxy-2-methylimidazo[1,2-a]pyridine-6-carboxamide], the IC50 is reported as < 1 µM. For COc1cc2nc(C)cn2cc1C(=O)Nc1ccc(N2[C@H](C)CNC[C@@H]2C)cc1F [Compound 154, N-(4-((28,6R)-2,6-dimethylpiperazin-1-yl)-2-fluorophenyl)-7-methoxy-2-methylimidazo[1,2-a]pyridine-6-carboxamide], the IC50 was < 1 µM. For COc1cc2nc(C)cn2cc1C(=O)Nc1ccc(N2CC3CNC(C3)C2)cc1F (stereo not shown) [Compound 155, N-(4-(3,6-diazabicyclo[3.2.1]octan-3-yl)-2-fluorophenyl)-7-methoxy-2-methylimidazo[1,2-a]pyridine-6-carboxamide], the IC50 was < 1 µM. In the case of COc1cc2nc(C)cn2cc1C(=O)Nc1ccc(N2CCNC(C)C2C)cc1F (stereo not shown) [Compound 157, N-(4-(2,3-dimethylpiperazin-1-yl)-2-fluorophenyl)-7-methoxy-2-methylimidazo[1,2-a]pyridine-6-carboxamide], the IC50 is reported as < 1 µM. COc1cc2nc(C)cn2cc1C(=O)Nc1ccc(N2CCNCCC2C)cc1F (stereo not shown) [Compound 158, N-(2-fluoro-4-(7-methyl-1,4-diazepan-1-yl)phenyl)-7-methoxy-2-methylimidazo[1,2-a]pyridine-6-carboxamide] was tested, and the IC50 was < 1 µM. COc1cc2nc(C)cn2cc1C(=O)Nc1ccc(N2CCNC(C)CC2)cc1F (stereo not shown) [Compound 160, N-(2-fluoro-4-(5-methyl-1,4-diazepan-1-yl)phenyl)-7-methoxy-2-methylimidazo[1,2-a]pyridine-6-carboxamide] was tested, and the IC50 was < 1 µM.
